Results published in ChEMBL document CHEMBL1150824, “New xenicane diterpenoids from the gorgonian Acalycigorgia inermis” (2001).
≈ marks a conversion by molar mass, not a printed value. Calls of active or inactive are those of the source. The calls are words filed in the database; no cut-off is given here.

Legend:
[1] = Inhibition of FPTase at 10 ug/mL
HUVEC [2] = assay: Antiangiogenic activity in HUVEC assessed as inhibition of bFGF-induced tube formation up to 20 ug/mL; format: functional, cell-based; details: Homo sapiens
HUVEC [3] = assay: Antiangiogenic activity in HUVEC assessed as inhibition of bFGF-induced tube formation at 10 ug/mL; format: functional, cell-based; details: Homo sapiens
[4] = Inhibition of FPTase up to 20 ug/mL
K562 = assay: Cytotoxicity against human K562 cells; format: functional; details: read-out: LC50 (the source's name)

| inhibition [1] [%] | SMILES | Activity [1] | Activity (HUVEC [2]) | Activity (HUVEC [3]) | Activity [4] | CC50 (K562) [µg/mL] |
| --- | --- | --- | --- | --- | --- | --- |
| – | C=C1CC[C@@H]2O[C@@]2(C)CC[C@@H]2[C@H](CCC=C(C)C)C(=O)OC[C@@H]12 | inactive | inactive | inactive | inactive | – |
| 82 | C=C=CCC(OC(C)=O)C1=CO[C@H](OC(C)=O)[C@H]2C(=C)CC[C@@H]3O[C@@]3(C)CC[C@H]12 (stereo partly specified) | – | – | Active | – | – |
| – | C=C1CC/C=C(\C)CC[C@@H]2/C(=C\C=C\C(C)(C)O)C(=O)OC[C@@H]12 [9-DEOXYXENIOLIDE A] | inactive | inactive | inactive | inactive | 0.04 (≈ 0.126 µM) |
| – | C=C1CC[C@@H]2O[C@@]2(C)CC[C@@H]2[C@H](CC/C=C(\C)C(=O)OC)C(=O)OC[C@@H]12 [ACALYCIXENIOLIDE H] | inactive | inactive | inactive | inactive | 3.9 (≈ 10.8 µM) |
| – | C=C1CC/C=C(\C)CC[C@@H]2[C@H](CC/C=C(\C)CO)C(=O)OC[C@@H]12 [ACALYCIXENIOLIDE I] | inactive | inactive | inactive | inactive | 1.2 (≈ 3.77 µM) |
| – | C=C1CC/C=C(\C)CC[C@@H]2[C@H](C/C=C/C(C)(C)O)C(=O)OC[C@@H]12 [ACALYCIXENIOLIDE J] | inactive | inactive | inactive | inactive | 2 (≈ 6.28 µM) |
| – | C=C1CC/C=C(\C)CC[C@@H]2[C@H](CC/C=C\CO)C(=O)OC[C@@H]12 [ACALYCIXENIOLIDE K] | inactive | inactive | inactive | inactive | 1.8 (≈ 5.91 µM) |
| – | C=C1CC/C=C(\C)CC[C@@H]2[C@H](CC/C=C/CO)C(=O)OC[C@@H]12 [ACALYCIXENIOLIDE L] | inactive | inactive | inactive | inactive | 1.5 (≈ 4.93 µM) |
